This note sets out measurements from US20230151057A1, “LACTIC ACID BACTERIA GROWTH PROMOTER” (Asahi Group Holdings, Ltd., priority 2020, published 2023).

This experiment deals with Lactobacillus gasseri (FERM BP-11331). Description: Growth-promoting effect on Lactobacillus gasseri in modified MRS medium (particle count). It counts as cell-based. The note with it: Example 1, peptide 0.25 mg/mL, 37° C., 18 hours; for Particle concentration: inoculum 1.0×10^7 cells/mL; for Rate of increase: control without peptide = 100%. The text has this:
Nitrogen sources in MRS medium were reduced to find a medium composition that achieves a total bacterial count of about 1.0×10^8 cell/mL to 1.0×10^9 cell/mL after culturing of each of the six bacterial strains Lactobacillus gasseri (FERNM BP-11331), Lactobacillus acidophilus (FERM BP-4981), Lactobacillus amylovorus (FERM BP-11255), Lactobacillus curvatus (NITE P-02033), Lactobacillus plantarum, and Lactobacillus brevis. This composition, named “modified MRS medium”, was used for the evaluation. Here, for the composition of the MRS medium, a composition described in a medium catalog provided by BD (Becton, Dickinson and Company) was used as a reference. The compositions of the MRS medium and the modified MRS medium are as follows. By chemical synthesis, 28 kinds of candidate peptides having the sequences shown below were provided. Each candidate peptide was added to the modified MRS medium at 0.25 mg/mL to provide a medium to be evaluated. The lactic acid bacterium Lactobacillus gasseri was inoculated at 1.0×10^7 cells/mL to the provided medium to be evaluated, and culture was carried out at a temperature of 37° C. for a culture period of 18 hours. The resulting culture was collected, and subjected to measurement of the particle concentration (particles/mL) as a characteristic value that can be used as an index of the bacterial cell growth, using a particle count analyzer (CDA-1000, Sysmex). The rate of increase (%) was calculated relative to a control value obtained using a medium to which no peptide was added, which was taken as 100%. Using the dipeptide LF (Leu-Phe) and an equimolar mixture of leucine (L) and phenylalanine (F), culture was carried out in the same manner as in Example 1, and the growth-promoting effects of the dipeptide and the amino acid mixture on the lactic acid bacterium were evaluated. Using a dipeptide (LF) as the peptide, the growth-promoting effect on a lactic acid bacterium was evaluated in the same manner except that the concentration of the dipeptide added was 0.1 mg/mL, 0.25 mg/mL, or 1.0 mg/mL.

The substance “HDDKHIIVD (listed as Saccharomyces cerevisiae) [His-Asp-Asp-Lys-His-Ile-Ile-Val-Asp]” displayed a Particle concentration of 2.25e+08 mL⁻¹ and a Rate of increase of 114%.

For Ile-Phe [IF], the Particle concentration is 2.01e+08 mL⁻¹ and the Rate of increase was 114%.

Take Ile-Pro-Gln [IPQ]: the Particle concentration was 1.82e+08 mL⁻¹ and the Rate of increase is listed as 99%.

The substance “Ile-Pro-Gly-Ile (IPGI; listed as Saccharomyces cerevisiae)” showed a Particle concentration of 2.19e+08 mL⁻¹ and a Rate of increase of 119%.

In the case of “Ile-Pro-Ile-Gln (IPIQ; listed as Saccharomyces cerevisiae)”, the Particle concentration turned out to be 2.11e+08 mL⁻¹ and the Rate of increase stood at 115%.

With “Ile-Pro-Ile-Thr (IPIT; listed as Saccharomyces cerevisiae)”, the Rate of increase is on record as 121%.

In turn, Ile-Pro-Thr [IPT] registered a Particle concentration of 1.79e+08 mL⁻¹ and a Rate of increase of 98%.

For Ile-Val-Glu [IVE], the Particle concentration was found to be 1.81e+08 mL⁻¹ and the Rate of increase stood at 96%.

With Leu-Pro-Gln [LPQ], the Particle concentration was 1.97e+08 mL⁻¹ and the Rate of increase is reported as 107%.

For the substance “Leu-Pro-Leu-Gly (LPLG; listed as Saccharomyces cerevisiae)”, the Particle concentration came out at 2.2e+08 mL⁻¹ and the Rate of increase is 120%.

With Leu-Pro-Thr [LPT], the Particle concentration was 1.9e+08 mL⁻¹ and the Rate of increase turned out to be 104%.

With “Leu-Pro-Val-Leu (LPVL; listed as Saccharomyces cerevisiae)”, the Particle concentration amounted to 2.07e+08 mL⁻¹ and the Rate of increase is 113%.

Leu-Val-Glu [LVE] gave a Particle concentration of 1.96e+08 mL⁻¹ and a Rate of increase of 104%.

“PNVLPETE (listed as Saccharomyces cerevisiae) [Pro-Asn-Val-Leu-Pro-Glu-Thr-Glu]” came in with a Particle concentration of 2e+08 mL⁻¹ and a Rate of increase of 101%.

The substance Phe-Leu [FL] showed a Particle concentration of 1.98e+08 mL⁻¹ and a Rate of increase of 112%.

The substance “SEYPPLG (listed as Saccharomyces cerevisiae) [Ser-Glu-Tyr-Pro-Pro-Leu-Gly]” returned a Particle concentration of 2.36e+08 mL⁻¹ and a Rate of increase of 119%.

Substance Val-Pro-Ile [VPI] showed a Particle concentration of 2.11e+08 mL⁻¹ and a Rate of increase of 112%.

Regarding Val-Pro-Leu [VPL], the Particle concentration stood at 2.01e+08 mL⁻¹ and the Rate of increase was found to be 107%.

“Val-Pro-Val-Gly (VPVG; listed as Saccharomyces cerevisiae)”: the Particle concentration stood at 1.76e+08 mL⁻¹ and the Rate of increase turned out to be 102%.

In turn, “WDESRFQ (listed as Saccharomyces cerevisiae) [Trp-Asp-Glu-Ser-Arg-Phe-Gln]” returned a Particle concentration of 2.38e+08 mL⁻¹ and a Rate of increase of 120%.
